Molecules are shown by their SMILES. Entries after “also recorded” stand apart in the source; their conditions may differ.

Data set [1] concerns CMV-Lac Z reporter in neonatal rat cardiomyocytes. The data set can be described thus: CMV-Lac Z reporter (specificity control). Type of data set: cell-based. The settings on record: inhibitor alone or together with phenylephrine. How it is done: (§1) FIGS. 3A-D. HDAC inhibitors block the activation of ANF reporter by phenylphrine without cytotoxicity. Neonatal rat cardiomyocytes were co-transfected with a total of 1 μg of the mouse 3 kb ANF promoter fragment and CMV-Lac Z plasmids. (FIG. 3A) The ANF promoter is minimally active in unstimulated cardiomyocytes. […] (FIG. 3B) Lac Z expression by the constitutive promoter CMV. Treatment with HDAC inhibitors augmented CMV activity with and without phenylephrine co-treatment. (FIGS. 3C and 3D) The graphs show the measurements of adenylate kinase activity remains constant in the medium after […] of culturing cardiomyocytes in the absence or presence of hypertrophic stimulants FBS, PE or ET-1.
(§2) Transcription assay. Twenty-four hours after plating, cells were transfected with total of 1 μg/ml for 5 hrs using Lipofectamine Plus reagent (Invitrogen, Carlsbad, Calif.). Transfected cells were incubated 24 hrs then treated for an additional 24 hrs. Cells were lysed and their lysates assayed with the Luciferase Assay System (Promega, Madison, Wis.) for luminescence using Lucysoft 2 luminometer (Rosys Anthos, New Castle, Del.).

Data set [2] deals with ANF, αSK-actin, αMyHC, βMyHC RNA in cardiomyocytes. Kind of data set: RNA dot blot of fetal gene program. Type of data set: cell-based, rat. As to conditions: phenylephrine 100 μM, TSA 85 nM, sodium butyrate 5 mM, HC-toxin 5 ng/ml. As for the experimental part:
FIGS. 5A-B. Treatment of cardiomyocytes with HDAC inhibitors blocks the fetal gene program associated with cardiomyocyte hypertrophy. […] The graphs represent three or more independent experiments.
Dot Blot analysis. Total RNA was isolated from cardiomyocytes that were either untreated, treated with phenylephrine, treated with TSA, or co-treated with phenylephrine and TSA. One microgram of RNA was blotted onto Nitrocellulose (Bio-Rad, Hercules, Calif.) and hybridized at 50° C. for 14 hrs with end-labeled oligos. (ANF, 5′-[…]-3, SEQ ID NO 1; αSK actin5′-[…]-3′, SEQ ID NO2; αMyHC,5′[…]-3′, SEQ ID NO 3; βMyHC5′-[…]-3′, SEQ ID NO 4; GAPDH5′-[…]-3′, SEQ ID NO 5). The blots were washed twice in 2×SSC/0.5% SDS solution and exposed to film (Kodak, Rochester, N.Y.) or phosphoimager (Amersham Bioscience, Sunnyvale, Calif.). The intensity of the hybridization of the probes was measured using ImageQuant® (Amersham Bioscience, Sunnyvale, Calif.).

Data set [3] has as its system ANF promoter in neonatal rat cardiomyocytes. The data set can be described thus: ANF promoter transcription (luciferase) assay. Type of data set: cell-based. As to conditions: for activation of ANF promoter by phenylephrine: phenylephrine 100 μM, TSA 85 nM, NaBut 5 mM, HC-toxin 5 ng/ml; for ANF promoter activity, inhibitor alone: unstimulated cardiomyocytes. As for the experimental part:
as §1
Cardiomyocyte isolation. Hearts were harvested from 15-day timed-pregnant female Sprague-Dawley rats (Harlan, Houston, Tex.). After mincing in phosphate-buffered saline, cardiomyocytes were isolated from successive digestion fractions of 0.1% (w/v) Pancreatin (Sigma, St. Louis, Mo.) solution. Fractions were collected; resuspended in plating medium, pooled; and then plated for 2 hours to separate fibroblasts from cardiomyocyte population. Suspended cells were recollected and plated in 6-well dishes at 1×10^6 cells/well for transfection and immunofluorescence experiments, and 2×10^6 cells in 10 cm dishes for RNA analysis.
as §2

The subject of another data set is transformed cells. The settings on record: Marks et al. (2000); cited from earlier work.
Another data set concerns HDAC. As to conditions: Marks et al. (2000); cited from earlier work.
The subject of the next data set is cultured cardiomyocytes. The data set can be described thus: Adenylate kinase release cytotoxicity assay. Type of data set: cell-based. The settings on record: increasing doses: TSA up to 100 nM, sodium butyrate up to 25 nM. How it is done: as §1
Inventors then examined whether increasing doses of TSA and sodium butyrate were cytotoxic to cultured cardiomyocytes. To determine cell mortality, the release of adenylate kinase from cardiomyocytes into the culture medium was assayed. This assay is a known measurement for the integrity of the cell membrane: membranes become permeable in dying cells causing the cells release adenylate kinase.

A further data set has as its system cardiomyocytes. Kind of data set: Protein synthesis (tritiated leucine, S6 ribosomal protein). Type of data set: cell-based, rat. As for the experimental part:
FIG. 6. The effects of TSA treatment on the reorganization of the sarcomeres and protein synthesis. […] The graphs on the right show the content of S6 ribosome protein in cardiomyocytes after 24 hours co-treatment with PE and increasing concentrations of TSA or with serum and increasing concentrations of TSA.
Protein synthesis. Cardiomyocytes were incubated with (1.0 μCi/ml; 172 Ci/mmol sp. activity) tritiated-leucine (ICN Biochemicals, Inc., Irvine, Calif.) in treated RPMI media (Invitrogen, Carlsbad, Calif.). After 6 hrs incubation, the cells were washed twice with 1× PBS, then incubated in 10% TCA on ice for 30 min. Afterwards, the cells were washed twice with 5% TCA, once with water, and then lysed in […]. Lysates were measured in one-sixth volume of scintillation fluid by a scintillation counter (Beckman, Fullerton, Calif.).
S6 Ribosomal protocol. After blocking, cells were incubated in 1% BSA/1× PBS containing 50 μg/ml anti-S6 protein (Cell Signaling, […]) for 1 hr. After washing, the cells were incubated with IgG-HRP (Jackson Labs, […]) at a 1:400 dilution. The cells were then washed twice in 1% BSA/1× PBS, in 1× PBS, then blotted dry. Luminol (Pierce, Rockford, Ill.) was added and the chemiluminescence was detected in a Fusion reader (Perkin-Elmer/Packard).

In data set [4] the test system is ANF in neonatal cardiomyocytes. Kind of data set: ANF chemiluminescence detection, dose response. Type of data set: cell-based, rat. As for the experimental part: FIGS. 4A-C. […] As in the transfection experiments, phenylephrine (100 µM) induces ANF expression over three-fold. […] (FIGS. 4B and 4C) The graphs show a reduction of the chemiluminent detection of ANF in the culture medium with increasing concentrations of the HDAC inhibitors TSA (FIG. 4B) and sodium butyrate (FIG. 4C) when co-cultured with the hypertrophic stimulants FBS, PE or ET-1.
Chemilumenescence. Neonatal cardiomyocytes were seeded onto 96-well plates and treated for 72 hrs. The cells were washed twice in 1×PBS, fixed in 4% paraformaldehyde/1×PBS, and permeabilized with 0.1% Triton-X100. After blocking, the cells were incubated 1 hr. with 10 μg/ml monoclonal anti-ANF antibody (Biodesign). The wells were washed twice with 1% BSA/1× PBS and then incubated for 1 hr. with goat anti-mouse IgG-Fc-HRP (Jackson Labs, […]) at 1:1000 in 1× PBS/1% BSA. Cells were washed twice with 1% BSA/1×PBS, twice with 1× PBS, then blotted dry. Luminol (Pierce, Rockford, Ill.) was added and the chemiluminescence was detected in a Fusion Plate Reader (Perkin Elmer/Packard).

As for `C[C@@H]1NC(=O)[C@H]2CCCN2C(=O)[C@H](CCCCCC(=O)[C@@H]2CO2)NC(=O)[C@@H](C)NC1=O` [HC-toxin], in data set [1], the “transcriptional activity of CMV-Lac Z reporter” value is on record as “increased the transcriptional activity of the CMV-Lac Z reporter”. Also, in data set [2], the “phenylephrine-induced endogenous ANF RNA expression” value is “prevented the phenylephrine-induced ANF response; also recorded: blocks the accumulation of ANF message”. Also, in data set [3], the “activation of ANF promoter by phenylephrine” value was “did block the promoter's activation by phenylephrine treatment completely; also recorded: prevented the activation of the ANF promoter” and the “ANF promoter activity, inhibitor alone” value was “did not activate the ANF promoter”.
Consider `O=C(CCCCCCC(=O)Nc1ccccc1)NO` [SAHA, suberoylanilide hydroxamic acid], for which the “effect on transformed cells” value in the data set on transformed cells was “induce growth arrest, differentiation, or apoptotic cell death of transformed cells”.
In the case of `O=C(CCCCCCC(=O)Nc1cccnc1)NO` [pyroxamide, suberoyl-3-aminopyridineamide hydroxyamic acid], the “effect on transformed cells” value in the data set with transformed cells is “induce growth arrest, differentiation, or apoptotic cell death of transformed cells”. The “inhibition of HDAC” value with HDAC is “potent inhibitors of HDAC in vitro and in vivo”.
Consider `CCCC(=O)[O-].[Na+]` [sodium butyrate], for which the “transcriptional activity of CMV-Lac Z reporter” value in data set [1] is on record as “increased the transcriptional activity of the CMV-Lac Z reporter”. In the data set on cultured cardiomyocytes, the “adenylate kinase in the culture medium (cell death)” value is listed as “did little to increase adenylate kinase”. In addition, the “phenylephrine-stimulated protein synthesis, 6 hours” value with cardiomyocytes (6 hours co-culture with phenylephrine) is on record as “had little effect on the stimulation of protein synthesis”. Also, the “protein synthesis induced by PE or serum, 24 hrs” value in the data set on cardiomyocytes (24 hrs co-treatment) is given as “antagonized the protein synthesis normally induced by PE or serum in a dose-dependent manner”. Besides, in data set [4] (FBS, PE, ET-1), the “minimal concentration that inhibited the hypertrophic response (ANF) of each growth stimulant” value was found to be 5 mM. In addition, in data set [4] (increasing concentrations), the “induction of ANF expression by FBS, PE and ET-1” value is “countered the induction of ANF expression”. Moreover, the “ANF expression at very low doses” value in data set [4] (very low doses (0.2 nM printed for sodium butyrate)) is listed as “near two-fold increase”. For the same molecule, the “phenylephrine-induced endogenous ANF RNA expression” value in data set [2] is reported as “blocks the accumulation of ANF message”; in data set [2] (listed as NaBut) it was “prevented the phenylephrine-induced ANF response”. Besides, the “activation of ANF promoter by phenylephrine” value in data set [3] is on record as “did block the promoter's activation by phenylephrine treatment completely”; in data set [3] (listed as NaBut), “prevented the activation of the ANF promoter”. In data set [3], the “ANF promoter activity, inhibitor alone” value is “did not activate the ANF promoter”.

The record behind these values is patent publication US6706686B2, “Inhibition of histone deacetylase as a treatment for cardiac hypertrophy” (The Regents of the University of Colorado, priority 2001, dated 2004).
